Measurements: the NIST ThermoML archive (doi:10.1021/je400790d)

Assay: mn = molality of the nth substance listed, in mol/kg
Settings: 100 kPa, Liquid, Vibrating tube method

CCCCCCCC[N+]1(C)CCOCC1.O=S(=O)([N-]S(=O)(=O)C(F)(F)F)C(F)(F)F + CC#N
mass density [kg/m3]
Settings	m1 = 0.00838	m1 = 0.01564	m1 = 0.02472	m1 = 0.03714	m1 = 0.05106	m1 = 0.06653	m1 = 0.08502	m1 = 0.1052	m1 = 0.1294	m1 = 0.1609
298.15 K	777.974	779.195	780.71	782.766	785.044	787.549	790.507	793.696	797.448	802.25
303.15 K	772.547	773.77	775.289	777.348	779.63	782.14	785.101	788.29	792.039	796.85
308.15 K	767.094	768.318	769.839	771.899	774.185	776.698	779.664	782.856	786.61	791.423
313.15 K	761.606	762.833	764.357	766.421	768.71	771.222	774.189	777.385	781.149	785.97
318.15 K	756.08	757.311	758.838	760.906	763.198	765.716	768.695	771.901	775.667	780.493
